In patent US20140234988A1, “Methods for Diagnosing and Treating Medical Conditions Associated With Oxidative Stress” (priority 2011, published 2014):

Key:
[1] = target: human serum albumin, binding site II (plasma of patients with cirrhosis) (Homo sapiens, UniProt P02768); conditions: cirrhotic patients vs controls
Description: (§1) In blood samples derived from the study population (9 consecutive patients with acute-on-chronic liver failure (ACLF) being evaluated for extracorporeal liver support and 20 patients with cirrhosis who were candidates for liver transplantation), albumin was fractionated by HPLC as previously described (Kawai, K. et al. (2001) Tokai J. Exp. Clin. Med. 26, 93-99) resulting in three protein fractions representing cysteine 34 as free sulfhydryl form (HMA), as mixed disulfide (HNA1), or in a higher oxidation state (HNA2).
(§2) Plasma albumin concentrations were determined by using an automatic clinical chemical analyser (EuroLyser, Eurolyser Diagnostica, Salzburg, Austria).
(§3) Serum samples were diluted with PBS and adjusted to an albumin concentration of 40 μM. Based on the 40 μM sample, a dilution series with final concentrations of 20 μM, 10 μM, and 5 μM albumin (in PBS) was made. Each of these samples (250 μl) was mixed with the same volume of 10 μM DS (Sigma-Aldrich, Vienna, Austria) solution. […] DS was detected by means of determining fluorescence at 482/350 nm using a Hitachi F1050 (Merck) detector. Quantificaton via the peak heights was done using the EZ Chrom Elite chromatography software (VWR, Vienna, Austria). From the straight line obtained by the graph of ln (free DS) vs. albumin, the albumin concentration binding half of the ligand was calculated and given as IC50 (μmol/l).

[2] = target: human serum albumin, binding site II (plasma of patients with acute-on-chronic liver failure, ACLF) (Homo sapiens, UniProt P02768); conditions: ACLF group vs controls
Description: as §1, §2, §3

[3] = target: human serum albumin, binding site II (plasma of patients with sepsis) (Homo sapiens, UniProt P02768); conditions: septic group vs controls
Chain of human serum albumin, binding site II (plasma of patients with sepsis) (P02768 25-609): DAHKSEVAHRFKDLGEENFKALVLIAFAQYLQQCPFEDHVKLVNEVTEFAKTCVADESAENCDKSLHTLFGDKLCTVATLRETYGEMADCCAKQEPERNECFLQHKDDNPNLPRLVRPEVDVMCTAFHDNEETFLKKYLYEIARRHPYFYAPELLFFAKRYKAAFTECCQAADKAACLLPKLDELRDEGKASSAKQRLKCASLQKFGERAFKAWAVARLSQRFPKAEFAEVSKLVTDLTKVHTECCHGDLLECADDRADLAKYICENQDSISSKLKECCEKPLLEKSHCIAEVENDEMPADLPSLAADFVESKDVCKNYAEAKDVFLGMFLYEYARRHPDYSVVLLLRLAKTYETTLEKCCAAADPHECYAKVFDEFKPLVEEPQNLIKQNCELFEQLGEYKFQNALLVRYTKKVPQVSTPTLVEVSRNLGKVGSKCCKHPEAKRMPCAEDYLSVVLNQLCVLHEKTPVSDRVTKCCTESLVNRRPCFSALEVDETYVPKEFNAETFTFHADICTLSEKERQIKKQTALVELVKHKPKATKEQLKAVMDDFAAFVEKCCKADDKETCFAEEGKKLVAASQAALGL
Protocol: as §2
Serum samples were diluted with PBS and adjusted to an albumin concentration of 40 μM. Based on the 40 μM sample, a dilution series with final concentrations of 20 μM, 10 μM, and 5 μM albumin (in PBS) was made. Each of these samples (250 μl) was mixed with the same volume of 10 μM DS (Sigma-Aldrich, Vienna, Austria) solution. Unbound DS molecules were separated from the plasma components via ultrafiltration (Ultrafree-MC reg. Cellulose 30K, Millipore, Vienna, Austria) at 500 g for 10 min at room temperature. 150 μl of the flow through were put into HPLC vials. As a control, 10 μM DS was diluted with the same volume of Millipore water and ultrafiltered as described. For an external standard curve, a dilution series of DS with Millipore water (10 μM, 5 μM, 2.5 μM, and 1.25 μM) was prepared. 20 μl of the filtrate were then injected to the HPLC system. […] DS was detected by means of determining fluorescence at 482/350 nm using a Hitachi F1050 (Merck) detector. Quantificaton via the peak heights was done using the EZ Chrom Elite chromatography software (VWR, Vienna, Austria). From the straight line obtained by the graph of ln (free DS) vs. albumin, the albumin concentration binding half of the ligand was calculated and given as IC50 (μmol/l). […]

Chain of human serum albumin, binding site II (plasma of patients with cirrhosis) (P02768 25-609): as above
Chain of human serum albumin, binding site II (plasma of patients with acute-on-chronic liver failure, ACLF) (P02768 25-609): as above

CN(C)c1cccc2c(S(=O)(=O)N(C)CC(=O)O)cccc12 [dansylsarcosine]
DS binding, compared with controls [1]: no difference in DS binding between controls and cirrhotic patients | IC50-values, compared with controls [2]: IC50-values were increased in the septic and ACLF group | IC50-values, compared with controls [3]: IC50-values were increased in the septic and ACLF group
